Laboratory results from patent US20030171307A1, “Azalide antibiotic compositions” (Pfizer Inc., priority 2001, published 2003).

Experiment: Equilibration of azalide isomers I and II in heated aqueous acid, HPLC (Table 1)
Type: physicochemical
Settings: isomer I prior to equilibration, for comparison

- % Equilibrium mixture of isomers: 98.39%
- % Impurities: 1.61%
Compound: CCCNC[C@]1(O)[C@H](C)O[C@@H](O[C@H]2[C@H](C)[C@@H](OC3O[C@H](C)C[C@H](N(C)C)[C@H]3O)C(C)(O)C[C@@H](C)CN[C@H](C)[C@@H](O)[C@](C)(O)[C@@H](CC)OC(=O)[C@@H]2C)C[C@@]1(C)OC (single isomer, unassigned) [isomer I]
